Data: patent US9512175B2, “Macrocyclic inhibitors of flaviviridae viruses” (Gilead Sciences, Inc., priority 2012, dated 2016)
Read-outs that look alike come from different tables or passages of the source.

What was measured:
[1] = rcm bond
[2] = from C=Cc1ccc2ccc([C@@H](C)OC(=O)[C@@H]3CCCN(C(=O)[C@H](C)NC(=O)[C@@H](NC(=O)[C@@H](/C=C/C)CC4CC4)C(C)C)N3)nc2c1; rcm bond; 21-membered ring; Hoveyda-Grubbs II (3x20 mol%); 1,2-dichloroethane; 2.44 mM; 80.0 °C
cyclophilin A = cyclophilin A (Homo sapiens, UniProt P62937); assay: Cyclophilin A TR-FRET competitive binding assay; conditions: IC50 ranges; competition with CsA-Cy5 for His-tagged CypA, two-hour incubation; read-out: TR-FRET
Description: Cyclophilin A TR-FRET Competitive Binding Assay
Inhibitor potency was measured using a competitive binding assay with a time-resolved fluorescence resonance energy transfer (TR-FRET) readout. […] An IC50 value was calculated using a four-parameter logistic fit.

[3] = tested on: HCV replicon (Replicon 1a); assay: anti-HCV activity in Huh-7 cell line harboring a HCV replicon (Replicon 1a); assay type: cell-based; conditions: for inhibition at 1 µM: Hepatitis C virus, Huh-7, 72 h, read-out: Replicon 1a % inhibition at 1 μM, 1 μM, human hepatoma Huh-7 HCV replicon cells, 3 days, luciferase readout

Sequence of cyclophilin A (P62937 whole entry, species assumed): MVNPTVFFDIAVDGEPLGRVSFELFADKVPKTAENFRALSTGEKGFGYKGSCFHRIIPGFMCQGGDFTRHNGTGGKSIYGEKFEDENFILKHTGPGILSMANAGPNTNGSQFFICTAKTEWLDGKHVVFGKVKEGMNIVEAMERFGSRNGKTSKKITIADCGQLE

Row | Compound | IC50 (cyclophilin A) | inhibition at 1 µM [3] | also measured
1 | CC(C)[C@@H]1NC(=O)C=Cc2cc3cc(ccc3cn2)[C@@H](C)NC(=O)[C@@H]2CCCN(N2)C(=O)[C@H](C)NC1=O | – | – | ring closure, isolated yield ([1]; from C=Cc1cc2cc([C@@H](C)NC(=O)[C@@H]3CCCN(C(=O)[C@H](C)NC(=O)[C@@H](NC(=O)/C=C/C)C(C)C)N3)ccc2cn1, 20-membered ring, Hoveyda-Grubbs II (2 x 10 mol%), toluene, 3.86 mM): 1.2%
2 | CC(C)[C@@H]1NC(=O)CC=Cc2cc3cc(ccc3cn2)[C@@H](C)NC(=O)[C@@H]2CCCN(N2)C(=O)[C@H](C)NC1=O | – | – | ring closure, isolated yield ([1]; from C=CCC(=O)N[C@H](C(=O)N[C@@H](C)C(=O)N1CCC[C@@H](C(=O)N[C@H](C)c2ccc3cnc(C=C)cc3c2)N1)C(C)C, 21-membered ring, Hoveyda-Grubbs II (2 x 10 mol%), toluene, 3.86 mM): 1%
3 | CC(C)[C@@H]1NC(=O)[C@H](CC2CC2)C=Cc2ccc3ccc(nc3c2)[C@@H](C)OC(=O)[C@@H]2CCCN(N2)C(=O)[C@H](C)NC1=O | – | – | ring closure, yield after HPLC [2]: 1.3%
4 | CC(=O)N1CCC2(/C=C/c3ccc4ccc(nc4c3)[C@@H](C)OC(=O)[C@@H]3CCCN(N3)C(=O)[C@H](C)NC(=O)[C@H](C(C)C)NC2=O)CC1 [Compound 135] | < 100 nM | 94% | –
5 | CC(C)[C@@H]1NC(=O)C2(/C=C/c3ccc4ccc(nc4c3)[C@@H](C)OC(=O)[C@@H]3CCCN(N3)C(=O)[C@H](C)NC1=O)CCN(CC(F)(F)F)CC2 [Compound 136] | < 100 nM | 100% | –
6 | COCc1cc2ccc3cc2nc1[C@@H](C)OC(=O)[C@@H]1CCCN(N1)C(=O)[C@H](C)NC(=O)[C@H](C(C)C)NC(=O)C(C)(C)/C=C/3 [Compound 137] | < 100 nM | 100% | –
7 | CC(C)[C@@H]1NC(=O)C(C)(C)/C=C/c2ccc3c(Cl)cc(nc3c2)[C@@H](C)OC(=O)[C@@H]2CCCN(N2)C(=O)[C@H](C)NC1=O [Compound 138] | < 100 nM | 100% | –
8 | CC1NC(=O)C(C(C)C)NC(=O)C(C)(C)/C=C/c2ccc3c(C#N)cc(nc3c2)C(C)OC(=O)C2CCCN(N2)C1=O (centres unmarked) [Compound 141] | < 100 nM | 99% | –
9 | CC(C)[C@@H]1NC(=O)C(C)(C)/C=C/c2ccc3ccc(cc3c2)[C@@H](C)OC(=O)[C@@H]2CCCN(N2)C(=O)[C@H](C)NC1=O [Compound 142] | < 100 nM | 99% | –
10 | CC(C)[C@@H]1NC(=O)C(C)(C)/C=C/c2cc3cc(ccc3cn2)[C@@H](C)NC(=O)[C@@H]2CCCN(N2)C(=O)[C@H](C)NC1=O [Compound 143] | < 100 nM | 31% | –
11 | Cc1cc2nc3cc(ccc13)/C=C/C(C)(C)C(=O)N[C@@H](C(C)C)C(=O)N[C@@H](C)C(=O)N1CCC[C@H](N1)C(=O)O[C@@H]2C [Compound 144] | < 100 nM | 100% | –
12 | CC(C)[C@@H]1NC(=O)C(C)(C)/C=C/c2ccc3c(=O)[nH]c(nc3c2)[C@@H](C)OC(=O)C2CCCN(N2)C(=O)[C@@H](C)NC1=O (some centres unmarked) [Compound 146] | < 100 nM | 24% | –
13 | CC(C)[C@@H]1NC(=O)C(C)(C)/C=C/c2ccc3c(=O)n(C)c(nc3c2)[C@@H](C)OC(=O)C2CCCN(N2)C(=O)[C@@H](C)NC1=O (some centres unmarked) [Compound 147] | < 100 nM | 94% | –
14 | Cc1cc2cc3nc(ccc13)[C@@H](C)OC(=O)C1CCCN(N1)C(=O)[C@@H](C)NC(=O)[C@H](C(C)C)NC(=O)C(C)(C)/C=C/2 (some centres unmarked) [Compound 148] | < 100 nM | 100% | –
15 | CO[C@@H](C)[C@H]1/C=C/c2ccc3ccc(nc3c2)[C@@H](C)OC(=O)[C@@H]2CCCN(N2)C(=O)[C@@H](C)NC(=O)[C@H](C(C)C)NC1=O [Compound 149] | < 100 nM | 99% | –
16 | CC(C)[C@@H]1NC(=O)C2(/C=C/c3ccc4ccc(nc4c3)[C@@H](C)OC(=O)[C@@H]3CCCN(N3)C(=O)[C@H](C)NC1=O)CC2 [Compound 152] | < 100 nM | 100% | –
17 | CC(C)[C@@H]1NC(=O)C2(/C=C/c3ccc4ccc(nc4c3)[C@@H](C)OC(=O)[C@@H]3CCCN(N3)C(=O)[C@H](C)NC1=O)CCOCC2 [Compound 153] | < 100 nM | 100% | –
18 | CC(C)[C@@H]1NC(=O)C2(/C=C/c3ccc4ccc(nc4c3)[C@@H](C)OC(=O)[C@@H]3CCCN(N3)C(=O)[C@H](C)NC1=O)CCCC2 [Compound 154] | < 100 nM | 100% | –

Row | Compound | IC50 (cyclophilin A) | inhibition at 1 µM [3] | also measured
19 | CC(C)[C@@H]1NC(=O)[C@@]2(/C=C/c3ccc4ccc(nc4c3)[C@@H](C)OC(=O)[C@@H]3CCCN(N3)C(=O)[C@H](C)NC1=O)CCCN2C(=O)OC(C)(C)C [Compound 155] | < 100 nM | 100% | –
20 | CC(C)[C@@H]1NC(=O)[C@@]2(/C=C/c3ccc4ccc(nc4c3)[C@@H](C)OC(=O)[C@@H]3CCCN(N3)C(=O)[C@H](C)NC1=O)CCCN2S(C)(=O)=O [Compound 156] | < 100 nM | 87% | –
21 | CC(C)[C@@H]1NC(=O)[C@]2(/C=C/c3ccc4ccc(nc4c3)[C@@H](C)OC(=O)[C@@H]3CCCN(N3)C(=O)[C@H](C)NC1=O)CC[C@H](O)CC2 [Compound 158] | < 100 nM | 100% | –
22 | CC(C)[C@@H]1NC(=O)[C@]2(/C=C/c3ccc4ccc(nc4c3)[C@@H](C)OC(=O)[C@@H]3CCCN(N3)C(=O)[C@H](C)NC1=O)CC[C@@H](O)CC2 [Compound 160] | < 100 nM | 98% | –
23 | CC(C)[C@@H]1NC(=O)[C@]2(CCc3ccc4ccc(nc4c3)[C@@H](C)OC(=O)[C@@H]3CCCN(N3)C(=O)[C@H](C)NC1=O)CC[C@H](O)CC2 [Compound 161] | < 100 nM | – | Replicon 1a % inhibition at 1 μM [3]: 95%
24 | Cc1cc2ccc(/C=C/C(C)(C)C(=O)N[C@H](C(=O)N[C@@H](C)C(=O)N3CCC[C@@H](C(=O)O)N3)C(C)C)cc2nc1[C@@H](C)O [Compound 162] | 1000 to 10000 nM | 0% | –
25 | Cc1cc2ccc3cc2nc1[C@@H](C)OC(=O)[C@@H]1CCCN(N1)C(=O)[C@H](C)NC(=O)[C@H](C(C)C)NC(=O)C(C)(C)/C=C/3 [Compound 163] | < 100 nM | 100% | –
26 | CC(C)C(=O)O[C@@H](C)[C@H]1/C=C/c2ccc3ccc(nc3c2)[C@@H](C)OC(=O)[C@@H]2CCCN(N2)C(=O)[C@H](C)NC(=O)[C@H](C(C)C)NC1=O [Compound 165] | < 100 nM | 100% | –
27 | CC(C)[C@H](NC(=O)[C@H](/C=C/c1ccc2ccc([C@@H](C)O)nc2c1)[C@H](C)O)C(=O)N[C@@H](C)C(=O)N1CCC[C@@H](C(=O)O)N1 [Compound 166] | 1000 to 10000 nM | 0% | –
28 | CC(C)[C@H](N)C(=O)O[C@@H](C)[C@H]1/C=C/c2ccc3ccc(nc3c2)[C@@H](C)OC(=O)[C@@H]2CCCN(N2)C(=O)[C@H](C)NC(=O)[C@H](C(C)C)NC1=O [Compound 167] | < 100 nM | 97% | –
29 | CC(C)OC(=O)OCO[C@@H](C)[C@H]1/C=C/c2ccc3ccc(nc3c2)[C@@H](C)OC(=O)[C@@H]2CCCN(N2)C(=O)[C@H](C)NC(=O)[C@H](C(C)C)NC1=O [Compound 168] | < 100 nM | 100% | –
30 | CC(C)[C@@H]1NC(=O)C(C)(C)/C=C/c2ccc3ccc(nc3c2F)[C@@H](C)OC(=O)[C@@H]2CCCN(N2)C(=O)[C@H](C)NC1=O [Compound 170] | < 100 nM | 100% | –
31 | CC(=O)O[C@@H](C)[C@H]1/C=C/c2ccc3ccc(nc3c2)[C@@H](C)OC(=O)[C@@H]2CCCN(N2)C(=O)[C@H](C)NC(=O)[C@H](C(C)C)NC1=O [Compound 171] | < 100 nM | 99% | –
32 | CCCC(=O)O[C@@H](C)[C@H]1/C=C/c2ccc3ccc(nc3c2)[C@@H](C)OC(=O)[C@@H]2CCCN(N2)C(=O)[C@H](C)NC(=O)[C@H](C(C)C)NC1=O [Compound 172] | < 100 nM | 100% | –
33 | CC(C)[C@@H]1NC(=O)[C@]2(/C=C/c3ccc4ccc(nc4c3)[C@@H](C)OC(=O)[C@@H]3CCCN(N3)C(=O)[C@H](C)NC1=O)CC[C@@](C)(O)CC2 [Compound 173] | < 100 nM | 99% | –
34 | CC(C)[C@@H]1NC(=O)[C@]2(/C=C/c3ccc4ccc(nc4c3)[C@@H](C)OC(=O)[C@@H]3CCCN(N3)C(=O)[C@H](C)NC1=O)CC[C@](C)(O)CC2 [Compound 174] | < 100 nM | 99% | –
35 | Cc1cc2ccc3cc2nc1[C@@H](C)NC(=O)[C@@H]1CCCN(N1)C(=O)[C@H](C)NC(=O)[C@H](C(C)C)NC(=O)C(C)(C)/C=C/3 [Compound 175] | < 100 nM | 85% | –
36 | (E)-pent-3-enoyl-hPhe-Ala-Piz-O-(R)-1-(3-vinyl-isoquinolin-6-yl)ethyl ester? | – | – | ring closure, isolated yield ([1]; the molecule shown is the open-chain precursor, 21-membered ring, Hoveyda-Grubbs II (portions), chlorobenzene, 4.8 mM, 110.0 °C): 12%
